How the values were obtained:
[1] = target: T1, BAG3 full-length (Homo sapiens, UniProt O95817); test: SPR assay on BAG3 full-length protein; settings: Biacore T200, 0 to 100 µM, 25 °C, 1:1 interaction model, n.b. = no binding, read-out: BAG3 FULL KD (µM) ± SD
T1 construct: both the full-length BAG3 protein and its BAG domain; purchased Novus Biologicals (Littleton, CO, USA)
Description: In this study, we employed SPR experiments to evaluate the interactions between synthesized compounds (1–14) and both the full-length BAG3 protein and its BAG domain. Only the compounds that successfully bound to the full-length BAG3 protein were tested for their interaction with the BAG domain. Protein immobilization was achieved using the amide coupling method, and the compounds were tested at ten different concentrations, ranging from 0 to 100 µM. A known binder of BAG3-BD, LK4 ((Z)-ethyl 2-(5-(3,4-dihydroxybenzylidene)-2,4-dioxothiazolidin-3yl)acetate), was used as a positive control. […] Compound 14 also bound the target but with slightly higher KD values, still within the micromolar range. The three identified compounds were further investigated to understand whether this binding induced an effect on BAG3 protein functions. The KD values reported in Table 1 for the known inhibitor LK4 differ from those in previous studies due to the use of a newer-generation instrument for the SPR experiments. The earlier experiments utilized the Biacore 3000, whereas the current study employed the Biacore T200. While ligand binding was confirmed in both sets of experiments, the slightly different KD values are attributed to the enhanced sensitivity of the Biacore T200.
Recombinant human BAG3 protein (Bcl2-associated athanogene 3) was sourced from Novus Biologicals (Littleton, CO, USA), while the BAG3 domain (BAG3-BD) was procured from ARETA International S.r.l. (Gerenzano, Italy). We utilized (Z)-ethyl 2-(5-(3,4-dihydroxybenzylidene)-2,4-dioxothiazolidin-3-yl)acetate (LK4), a known BAG3 inhibitor previously identified by our group. Surface Plasmon Resonance (SPR) spectroscopy was employed to assess the affinity of synthesized molecules for BAG3 and BAG-BD using a Biacore T200 optical biosensor equipped with CM5 sensor chips (Cytiva, Marlborough, MA, USA). BAG3 and BAG-BD were immobilized on the CM5 sensor chip using standard amine-coupling protocols. BAG3 protein (0.067 μg/μL in 10 mM CH3COONa, pH 4.5) was immobilized at a flow rate of 10 μL/min, resulting in a density of 14 kRU. The BAG3 domain (0.38 μg/μL in 10 mM CH3COONa, pH 4.5) was immobilized under similar conditions, achieving a density of 4 kRU. For the experiments, BAG3 and BAG-BD surfaces, along with an unmodified reference surface, were prepared for simultaneous analyses.
Compounds 1–14 and LK4 were dissolved to 10 mM in 100% DMSO and then diluted 1:20 (v/v) in PBS-P buffer (0.2 M phosphate buffer, 27 mM KCl, 1.37 M NaCl, 0.5% surfactant P20) to achieve a final DMSO concentration of 5.0%. These compounds were injected in a concentration series (1:2 dilution, 10 different concentrations) ranging from 0 to 100 μM, prepared in 96-well plates. SPR experiments were conducted at 25 °C with a flow rate of 20 μL/min, featuring 90 s of association and 400 s of dissociation monitoring. Changes in mass, reflected as resonance units (RU), were recorded to determine binding responses. KD values were calculated using Biaevaluation software 3.2 by globally fitting the double-referenced association and dissociation data to a 1:1 interaction model. See Supplementary Materials for all the sensorgrams (Figures S43–S50).

[2] = system: HeLa cells; test: Cell cycle and hypodiploid nuclei analysis by PI staining flow cytometry; format: cell-based, human; settings: 72 h, all tested concentrations (50, 30, 20 µM)
Description: Given BAG3’s well-documented anti-apoptotic role, annexin V-FITC/PI staining was performed to evaluate the effects of compound 10 on cell apoptosis. […] Specifically, at 50 µM, 81.0 ± 3.89% of the cells were apoptotic (p < 0.001 vs. Ctrl); at 30 µM, 70.5 ± 4.56% were apoptotic (p < 0.01 vs. Ctrl); and at 20 µM, 51.5 ± 2.23% were apoptotic (p < 0.05 vs. Ctrl) (Figure 3A,B).
Hypodiploid nuclei were analyzed using PI staining by flow cytometry. HeLa cells (1 × 10^5 cells/well) were grown in 12-well plates and allowed to adhere for 24 h. Subsequently, the medium was replaced with fresh medium, and the cells were treated for 72 h with compound 10 at concentrations of 20, 30, and 50 µM, 0.1% (v/v) DMSO (negative control), and 10% (v/v) DMSO (positive control). Following treatment, the culture medium was replaced, and the cells were washed twice with PBS. The cells were then suspended in […] of a solution containing 50 mg/L PI, 0.1% (w/v) sodium citrate, and 0.1% Triton X-100. […] After incubation at 4 °C for 30 min in the dark, cell nuclei were analyzed using a Becton Dickinson FACS flow cytometer (Franklin Lakes, NJ, USA) with the Cell Quest program, and the DNA content of the nuclei was recorded. Cellular debris was excluded from the analysis by increasing the forward scatter threshold, and the percentages of cells in the hypodiploid region (sub-G0/G1), G1, S, and G2 regions were calculated. […]

[3] = system: caspase 3; test: Caspase 3 determination by flow cytometry; format: cell-based, human; settings: HeLa cells, 72 h, 50, 30 and 20 µM, vs control
Description: Furthermore, we investigated the expressions of caspases, key mediators of programmed cell death, in HeLa cells treated with compound 10 at the same concentrations used in the previous assays. […] To further confirm the pro-apoptotic mechanism induced by compound 10, Western blotting was performed to measure the expression and cleavage of caspase 3 [38, 39].
HeLa cells were seeded into 6-well plates (2.5 × 10^5 cells/well) and allowed to adhere for 24 h. The cells were then treated for 72 h with compound 10 at concentrations of 20, 30, and 50 µM, as well as with 0.1% DMSO negative (control), to assess caspase 3 and caspase 9 levels. After treatment, cells were collected, washed with PBS, and incubated at 4 °C first with a fixing buffer (containing 1% formaldehyde and 1% FBS in PBS) for 20 min, followed by permeabilization with fix perm solution (fixing buffer containing 0.1% Triton X-100) for 30 min. Next, the cells were incubated with anti-caspase 3 (1:500; SC-7272, Santa Cruz, CA, USA) and anti-caspase 9 (1:50; BS-0049R, Bioss Antibodies, Woburn, MA, USA) antibodies for 30 min at 4 °C. […] Cell fluorescence was then evaluated using a fluorescence-activated cell sorter (FACSscan, Becton Dickinson, Milan, Italy) and analyzed with Cell Quest software (4.0, Becton Dickinson, North Ryde, Australia). […]

T1 sequence (O95817 whole entry, the tested form may be a part): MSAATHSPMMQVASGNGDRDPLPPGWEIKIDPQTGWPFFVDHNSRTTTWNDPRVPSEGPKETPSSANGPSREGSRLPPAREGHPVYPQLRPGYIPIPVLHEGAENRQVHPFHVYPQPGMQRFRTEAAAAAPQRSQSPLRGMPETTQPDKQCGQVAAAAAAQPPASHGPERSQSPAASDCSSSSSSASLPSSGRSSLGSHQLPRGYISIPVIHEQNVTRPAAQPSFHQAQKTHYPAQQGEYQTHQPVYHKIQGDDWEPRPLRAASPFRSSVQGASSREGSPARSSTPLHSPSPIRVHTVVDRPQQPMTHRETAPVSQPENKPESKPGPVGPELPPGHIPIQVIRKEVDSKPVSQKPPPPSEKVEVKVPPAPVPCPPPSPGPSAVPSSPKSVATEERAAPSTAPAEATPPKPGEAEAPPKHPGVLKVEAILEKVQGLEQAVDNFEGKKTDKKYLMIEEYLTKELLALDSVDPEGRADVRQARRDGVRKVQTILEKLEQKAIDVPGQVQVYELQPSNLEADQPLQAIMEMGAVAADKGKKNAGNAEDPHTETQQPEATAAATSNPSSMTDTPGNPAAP

CC(C)Nc1c(-c2ccccc2Br)nc2ccc(Cl)cn12 [Compound 10, 2-(2-bromophenyl)-6-chloro-N-isopropylimidazo[1,2-a]pyridin-3-amine]
Kd [1]: 33.5 ± 0.21 µM | cell cycle arrest [2]: consistent and significant cell cycle arrest | hypodiploid nuclei [2]: increase in hypodiploid nuclei | activation of caspase 3 [3]: pronounced, dose-dependent activation

Reference: article PMC11547576, “Identification of a New Promising BAG3 Modulator Featuring the Imidazopyridine Scaffold” (Molecules, 2024)
